# Laboratory results as given in patent US10071083B2 (Ovid Therapeutics Inc., priority 2017, dated 2018).
# Legend:
# tinnitus = conditions: published studies reviewed by Jufas and Wood (2015); cited from earlier work
# [1] = human, in vivo
# [2] = test system: healthy, male and female subjects; test: Study of driving performance after gaboxadol administration (Example 3); assay type: in vivo, human
# Description: The study participants included healthy, male and female subjects between 21 and 45 years of age, with a valid drivers license for at least 3 years.
# Following a cognitive and psychomotor test battery, the driving test started at 9 am and lasted for one hour.
# patients = patients with a history of drug abuse who received gaboxadol; cited from earlier work
# [3] = test system: healthy adults subjected to a 5-hour sleep restriction; test: Study of daytime performance after sleep restriction (Example 4); assay type: in vivo, human
# Description: The study included a 2-night single-blind placebo run-in period, a 4-night double-blind treatment period during which sleep was restricted to 5 hours and a 2-night single-blind placebo run-out period. The study included healthy male and female volunteers 18 to <55 years of age.
# 2-night run-in period: All patients received placebo
# 2-night run-out period: All patients received placebo
# The primary endpoints included observations based on the Multiple Sleep Latency Test (MSLT) and Slow Wave Sleep (SWS) assessment.
compound,measurement,setting,value
Cc1nnc2n1-c1ccc(Cl)cc1C(c1ccccc1)=NC2 [alprazolam],efficacy in treating tinnitus,tinnitus,opposing results
O=C1CN=C(c2ccccc2Cl)c2cc([N+](=O)[O-])ccc2N1 [Clonazepam],efficacy in treating tinnitus,tinnitus,effective
"Oc1noc2c1CCNC2 [gaboxadol, 4,5,6,7-tetrahydroisoxazolo [5,4-c]pyridine-3-ol]",CL (in the CL/F line),"[1]; iv, 10 mg",438 mL/min
same,dose dependence of plasma AUC0-∞ and Cmax,[1]; po,dose proportional increases
same,"most frequent adverse events, middle-of-the-night treatment",[2]; gaboxadol 15 mg at 4 am,"dizziness, nausea and somnolence"
same,effect on driving after evening dose compared with blood alcohol,"[2]; gaboxadol 15 mg evening dose, comparison with 0.05% blood alcohol concentration",less than the effect observed at a 0.05% blood alcohol concentration
same,"most frequent adverse events, evening treatment",[2]; gaboxadol 15 mg in the evening,headache and somnolence
same,psychiatric adverse events,patients,steep increase
same,"biophysiological measures of stress (heart rate variability, cortisol levels, catecholamine levels, body temperature) versus placebo",[3]; gaboxadol 15 mg versus placebo,no differences
same,"daytime performance, effect sizes of the neurocognitive battery",[3]; gaboxadol 15 mg versus placebo,no strong evidence that gaboxadol improves daytime performance
same,daytime sleepiness during the Sleep Restriction period versus placebo (MSLT),"[3]; gaboxadol 15 mg, 4 nights, sleep restricted to 5 hours, p=0.047, 1 sided",significantly less daytime sleepiness
same,"MSLT longer than placebo, on average","[3]; gaboxadol 15 mg, last two Sleep Restriction days",2.01 min
same,"Karolinska Sleepiness Score (KSS) less than placebo, on average","[3]; gaboxadol 15 mg, last two Sleep Restriction days, LDA model, p=0.058, 1 sided",0.68
same,"SWS longer than placebo, on average","[3]; gaboxadol 15 mg, last two Sleep Restriction nights",20.53 min
same,slow wave sleep (SWS) during the Sleep Restriction period versus placebo,"[3]; gaboxadol 15 mg, p<0.001, 1 sided",significantly more SWS
CN1C(=O)CN=C(c2ccccc2)c2cc(Cl)ccc21 [diazepam],efficacy in treating tinnitus,tinnitus,not effective
